In a compilation of properties of binary mixtures (doi:10.1007/s10953-023-01246-7):

Assay: xn = mol fraction of the nth substance listed
Settings: 100 kPa

CCOS(=O)(=O)[O-].CC[n+]1ccn(C)c1 + OCCO
viscosity [mPa·s]
Settings	x1 = 0.1003	x1 = 0.1982	x1 = 0.2999	x1 = 0.4002	x1 = 0.5005	x1 = 0.5992	x1 = 0.6994	x1 = 0.8001	x1 = 0.8993
293.15 K	–	17.96	–	25.17	32.09	40.31	54.7	70.3	99.9
298.15 K	14.75	15.08	17.32	21.18	26.88	33.49	44.9	56.9	78.4
303.15 K	12.28	12.75	14.69	17.95	22.71	–	–	46.47	62.8
308.15 K	10.4	–	–	15.42	19.35	23.73	31.11	38.47	51.2
313.15 K	8.88	–	10.94	13.31	16.65	20.23	26.27	32.2	42.22
318.15 K	7.67	–	9.49	–	14.46	17.49	22.38	–	–
323.15 K	–	7.16	8.38	10.19	12.56	15.18	19.32	23.28	29.87
328.15 K	5.8	6.26	7.45	9.03	11.07	13.32	16.79	20.18	25.55
333.15 K	–	–	6.62	8.07	–	11.79	14.74	17.49	22.02
338.15 K	4.53	4.97	5.94	7.19	8.77	–	13.02	15.39	19.13
343.15 K	4.03	4.47	5.33	6.46	–	–	11.55	–	16.8
